Experimental findings from publication PMC5090035, “A Class 1 Histone Deacetylase with Potential as an Antifungal Target” (mBio, 2016) are described below.

The structures appear in SMILES notation.

Test [1] has as its target T1, RpdA (TAP-tagged wild-type RpdA) (Aspergillus nidulans, UniProt G5EB64).
T1 construct: gene ANIA_04493; full-length, C12 motif present; TAP-tagged, expressed under xylPp in A. nidulans, IgG Sepharose, eluted by TEV cleavage (CBP part kept)
Kind of test: HDAC assay, release of [3H]acetate from prelabeled histones. It is filed as biochemical. The note with it: read-out: % inhibition at 50 nM.

Test [2] has as its target T1, RpdA (TAP-tagged wild-type RpdA). The test is described as above. It is filed as biochemical. The note with it: [3H]acetate-prelabeled chicken reticulocyte histones as substrate; 1 h, 25 C; inhibitor at 50 and 500 nM.

T1 sequence (G5EB64 1-687): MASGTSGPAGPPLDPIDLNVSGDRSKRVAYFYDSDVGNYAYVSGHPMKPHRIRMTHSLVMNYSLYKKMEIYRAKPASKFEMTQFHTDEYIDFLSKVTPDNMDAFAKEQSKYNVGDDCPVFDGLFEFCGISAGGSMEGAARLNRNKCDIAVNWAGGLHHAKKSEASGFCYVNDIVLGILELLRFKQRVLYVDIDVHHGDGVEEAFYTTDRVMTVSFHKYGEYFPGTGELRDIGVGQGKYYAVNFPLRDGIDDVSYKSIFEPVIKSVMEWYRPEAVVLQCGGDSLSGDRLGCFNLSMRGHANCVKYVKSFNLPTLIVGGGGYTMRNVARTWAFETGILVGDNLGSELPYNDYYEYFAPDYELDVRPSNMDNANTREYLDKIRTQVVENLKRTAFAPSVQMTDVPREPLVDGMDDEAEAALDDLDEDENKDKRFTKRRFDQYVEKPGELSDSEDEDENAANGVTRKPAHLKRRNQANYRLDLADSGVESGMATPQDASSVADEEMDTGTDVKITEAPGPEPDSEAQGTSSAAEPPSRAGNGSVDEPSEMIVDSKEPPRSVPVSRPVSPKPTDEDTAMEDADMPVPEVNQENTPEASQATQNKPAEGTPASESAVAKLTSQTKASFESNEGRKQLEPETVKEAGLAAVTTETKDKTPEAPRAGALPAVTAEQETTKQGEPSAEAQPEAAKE

A word on the inhibition: it is the share of the control response that was lost under treatment. For `CC(/C=C/C(=O)NO)=C\[C@@H](C)C(=O)c1ccc(N(C)C)cc1` [trichostatin A], in test [1], the inhibition at 0.05 µM turned out to be 70%. Consider `O=C(CCCCCCC(=O)Nc1ccccc1)NO` [vorinostat], for which the “% inhibition at 50 and 500 nM” value in test [2] is on record as “SAHA showed only weak inhibition of RpdA”.
